Reference: US7476679B2, “Octahydroisoquinoline compounds as opioid receptor modulators” (Research Triangle Institute, priority 2005, dated 2009)
Read-outs that look alike come from different tables or passages of the source.

How the values were obtained:
Assay type in all cases: biochemical
[1] = target: T1, human mu opioid receptor (Homo sapiens, UniProt P35372); test: Inhibition of agonist (DAMGO) stimulated [35S]GTPγS binding, apparent affinity (Ke)
T1 construct: expressed in transfected cells; host or cells: CHO cells (membrane homogenates)
Protocol: (§1) Determination of apparent affinity (Ke). The ability of a single concentration of test compound to shift an agonist dose response curve to the right was used to determine its Ke. Agonist activity was determined using [^35S]GTP-γ-S binding in CHO cell membrane homogenates expressing either the human mu, kappa or delta opioid receptor. The subtype selective agonists (D-Ala^2, MePhe^4, Gly-ol^5)enkephalin (DAMGO, mu receptor), D-Pen2,D-Pen5]-enkephalin (DPDPE, delta receptor) or U69,593 (kappa receptor) were run as appropriate. The assays were run in triplicate in 1.4 mL polypropylene tubes (Matrix Technologies, Hudson, N.H.) in 96-well format. Each assay tube contained membrane homogenate, one of seven concentrations of agonist or agonist+test compound, 0.1 nM [^35S]GTP-γ-S and 10 μM GDP in a 50 mM HEPES buffer (pH 7.4). Basal [^35S]GTP-γ-S binding was determined in samples without agonist or test compound. All samples were incubated at room temperature for one hour after which bound radioligand was separated from free via rapid vacuum filtration over GF-B filters with a Brandel Scientific (Gaithersburg, Md.) 96-well harvester. Bound radioactivity was determined with a TopCount 12-detector instrument (Packard Instruments) using standard scintillation counting techniques. The binding data from each assay plate were normalized to basal binding prior to analysis. The EC50s were calculated from a three-parameter logistic curve fit to the data with Prism (version 3.0, GraphPad Software, Inc., San Diego, Calif.).

[2] = target: T2, human delta opioid receptor (Homo sapiens, UniProt P41143); test: Inhibition of agonist (DPDPE) stimulated [35S]GTPγS binding, apparent affinity (Ke)
T2 construct: expressed in transfected cells; host or cells: CHO cells (membrane homogenates)
Protocol: as §1

[3] = target: T3, human kappa opioid receptor (Homo sapiens, UniProt P41145); test: Inhibition of agonist (U69,593) stimulated [35S]GTPγS binding, apparent affinity (Ke); conditions: for δ/κ / μ/κ: ratio of Ke values; for δ/κ: δ over κ; for μ/κ: μ over κ
T3 construct: expressed in transfected cells; host or cells: CHO cells (membrane homogenates)
Protocol: as §1

[4] = cloned human μ receptor, CHO cell membrane homogenates, agonist DAMGO, 10 μM GDP, mean ± SE, read-out: μ, DAMGO Ke
[5] = cloned human κ receptor, CHO cell membrane homogenates, agonist U69,593, 10 μM GDP, mean ± SE, read-out: κ, U69,593 Ke
[6] = cloned human μ receptor, CHO cell membrane homogenates, agonist DAMGO, 10 μM GDP, mean ± SE
[7] = cloned human δ receptor, CHO cell membrane homogenates, agonist DPDPE, 10 μM GDP, mean ± SE
[8] = cloned human κ receptor, CHO cell membrane homogenates, agonist U69,593, 10 μM GDP, mean ± SE

T3 sequence (P41145 whole entry): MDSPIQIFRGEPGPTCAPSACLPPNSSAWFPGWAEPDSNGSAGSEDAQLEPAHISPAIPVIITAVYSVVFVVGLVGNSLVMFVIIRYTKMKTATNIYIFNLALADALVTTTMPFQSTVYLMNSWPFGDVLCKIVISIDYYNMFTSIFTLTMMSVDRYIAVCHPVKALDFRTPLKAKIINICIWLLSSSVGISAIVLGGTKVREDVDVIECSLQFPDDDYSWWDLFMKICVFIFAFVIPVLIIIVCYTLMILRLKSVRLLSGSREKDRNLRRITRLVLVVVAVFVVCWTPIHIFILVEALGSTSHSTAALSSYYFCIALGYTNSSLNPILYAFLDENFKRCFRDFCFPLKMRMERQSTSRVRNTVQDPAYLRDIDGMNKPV
T1 sequence (P35372 whole entry): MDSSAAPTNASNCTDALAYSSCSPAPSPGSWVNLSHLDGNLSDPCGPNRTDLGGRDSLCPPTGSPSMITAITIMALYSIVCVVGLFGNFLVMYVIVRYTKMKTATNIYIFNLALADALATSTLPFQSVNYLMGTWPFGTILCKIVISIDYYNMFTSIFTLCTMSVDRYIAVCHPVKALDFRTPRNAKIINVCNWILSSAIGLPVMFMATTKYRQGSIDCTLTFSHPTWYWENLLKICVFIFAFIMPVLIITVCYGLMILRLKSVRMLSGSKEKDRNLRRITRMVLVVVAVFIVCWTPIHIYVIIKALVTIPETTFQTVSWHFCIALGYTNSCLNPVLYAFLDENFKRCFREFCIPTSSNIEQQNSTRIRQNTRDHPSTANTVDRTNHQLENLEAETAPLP
T2 sequence (P41143 whole entry): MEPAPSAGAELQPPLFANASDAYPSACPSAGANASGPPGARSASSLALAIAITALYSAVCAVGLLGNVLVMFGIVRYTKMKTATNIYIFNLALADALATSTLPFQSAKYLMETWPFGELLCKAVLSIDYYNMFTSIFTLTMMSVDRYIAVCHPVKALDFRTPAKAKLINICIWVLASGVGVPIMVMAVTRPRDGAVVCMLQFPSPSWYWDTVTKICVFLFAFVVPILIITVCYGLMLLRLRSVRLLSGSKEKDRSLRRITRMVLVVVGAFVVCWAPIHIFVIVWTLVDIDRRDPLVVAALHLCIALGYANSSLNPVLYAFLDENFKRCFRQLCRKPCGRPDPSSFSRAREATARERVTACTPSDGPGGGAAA

Compound	Kb [1] [nM]	Kb ([2]; cloned human δ receptor, CHO cell membrane homogenates, agonist DPDPE, 10 μM GDP, mean ± SE, read-out: δ, DPDPE Ke) [nM]	Kb [3] [nM]	δ/κ [3]	μ/κ [3]	Kb [1, 4] [nM]	Kb [2] [nM]	Kb [3, 5] [nM]	μ, DAMGO Ke [1, 6] [nM]	δ, DPDPE Ke [2, 7] [nM]	κ, U69,593 Ke [3, 8] [nM]
CN1CCC2(c3cccc(O)c3)CCCCC2(C)C1 (centres unmarked) [6a, N-Methyl-4a-(3-hydroxyphenyl)-8a-methyloctahydroisoquinoline]	99.4 ± 28.3	477 ± 137	3.37 ± 0.47	141	29	–	–	–	–	–	–
CC12CCCCC1(c1cccc(O)c1)CCN(CCc1ccccc1)C2 (centres unmarked) [6b, N-Phenethyl-4a-(3′-hydroxyphenyl)-8a-methyloctahydroisoquinoline]	–	–	–	7	0.3	0.84 ± 0.22	18.9 ± 5.2	2.84 ± 0.97	–	–	–
CC12CCCCC1(c1cccc(O)c1)CCN(CCCc1ccccc1)C2 (centres unmarked) [6c, N-(3-Phenpropyl)-4a-(3-hydroxyphenyl)-8a-methyloctahydroisoquinoline]	–	–	–	12	0.8	–	–	–	0.80 ± 0.10	12.4 ± 2.9	1.03 ± 0.14
CC12CCC(NC(=O)CCN3CCCCC3)CC1(c1cccc(O)c1)CCN(CCCc1ccccc1)C2 (centres unmarked) [6d, N-(4a-(3-Hydroxyphenyl)-8a-methyl-2-(3-phenylpropyl)octahydroisoquinolin-6-yl]-3-piperidin-1-yl-propionamide]	–	–	–	46	154	41.7 ± 7.8	12.3 ± 3.1	0.27 ± 0.08	–	–	–
CC12CCC(NC(=O)CCN3CCc4ccccc4C3)CC1(c1cccc(O)c1)CCN(CCCc1ccccc1)C2 (centres unmarked) [6e, 3-(3,4-Dihydro-1H-isoquinolin-2-yl)-N-(4a-(3-hydroxyphenyl)-8a-methyl-2-(3-phenylpropyl)octahydroisoquinolin-6-yl]propionamide]	–	–	–	21	45	9.82 ± 3.7	4.56 ± 1.2	0.22 ± 0.02	–	–	–
CC12CCC(NC(=O)C3(c4ccccc4)CCCC3)CC1(c1cccc(O)c1)CCN(CCCc1ccccc1)C2 (centres unmarked) [6f, 1-Phenylcyclopentanecarboxylic Acid [4a-(3-Hydroxyphenyl)-8a-methyl-2-(3-phenylpropyl)octahydroisoquinolin-6-yl]amide]	–	–	–	3	0.8	1.46 ± 0.15	6.46 ± 2.3	1.93 ± 0.48	–	–	–
CC12CCC(NC(=O)c3cc4ccccc4s3)CC1(c1cccc(O)c1)CCN(CCCc1ccccc1)C2 (centres unmarked) [6g]	–	–	–	2	25	–	–	–	11.3 ± 2.0	1.01 ± 0.22	0.46 ± 0.13
